Reference: article PMC12417622 (Biopharmaceutics & Drug Disposition, 2025)
Read-outs that look alike come from different tables or passages of the source. One block for each molecule: values may come before it.

What was measured:
hOAT3 [1] = target: T1, hOAT3 (Homo sapiens, UniProt Q8TCC7); test: Uptake of 6-CF in HEK-pBK and HEK-hOAT3 cells and its inhibition by probenecid; type: cell-based; set-up: expressed in transfected cells; host or cells: HEK293 (HEK-hOAT3), gift of Dr. Atsushi Yonezawa, Kyoto University Hospital; mock control HEK-pBK (pBKCMV vector); settings: 5 μM 6-CF, 2 min, 37°C
T1 sequence (Q8TCC7 1-542): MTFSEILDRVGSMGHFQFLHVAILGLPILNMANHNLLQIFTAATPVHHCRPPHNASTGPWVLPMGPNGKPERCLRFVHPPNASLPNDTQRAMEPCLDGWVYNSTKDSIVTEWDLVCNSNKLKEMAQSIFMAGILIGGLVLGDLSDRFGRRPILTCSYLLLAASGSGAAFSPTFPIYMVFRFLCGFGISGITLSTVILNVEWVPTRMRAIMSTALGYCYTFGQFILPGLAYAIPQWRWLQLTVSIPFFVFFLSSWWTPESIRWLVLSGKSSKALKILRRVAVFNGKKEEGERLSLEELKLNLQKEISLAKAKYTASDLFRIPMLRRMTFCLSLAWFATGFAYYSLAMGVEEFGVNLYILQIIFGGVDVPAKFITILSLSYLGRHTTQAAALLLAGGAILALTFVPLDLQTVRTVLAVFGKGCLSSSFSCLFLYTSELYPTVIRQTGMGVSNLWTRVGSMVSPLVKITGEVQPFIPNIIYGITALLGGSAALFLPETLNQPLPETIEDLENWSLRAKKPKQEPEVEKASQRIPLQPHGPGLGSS
Procedure: The cells were incubated for 2 min at 37°C with 5 µM 6‐CF (pH 7.4) in the absence or presence of probenecid (100 µM).

hOAT3 [2] = target: T1, hOAT3; set-up: expressed in transfected cells; host or cells: HEK293 (HEK-hOAT3), gift of Dr. Atsushi Yonezawa, Kyoto University Hospital; mock control HEK-pBK (pBKCMV vector); settings: cited from earlier work; for Ki: read-out: Ki against hOAT3
[3] = set-up: method as in Zhang et al. [2014]; settings: human, 40–120 mg febuxostat orally; ref Zhang et al. [2014]; cited from earlier work
[4] = Cmax of febuxostat after oral administration in human; type: in vivo; settings: 40–120 mg febuxostat orally, estimated from Cmax and protein binding
[5] = set-up: method as in Yu et al. [2023]; settings: rats; ref Yu et al. [2023]; cited from earlier work
hOAT3 [6] = target: T1, hOAT3; test: Inhibition of hOAT3-mediated methotrexate transport by febuxostat in HEK-hOAT3 cells (inhibition plot, Dixon plot); type: cell-based; set-up: expressed in transfected cells; host or cells: HEK293 (HEK-hOAT3), gift of Dr. Atsushi Yonezawa, Kyoto University Hospital; mock control HEK-pBK (pBKCMV vector)
Procedure: (§1) The entire LC gradient was 16 min.

[7] = set-up: method as in review report of febuxostat (Feburic Tablet); settings: rats, 5 min after febuxostat 1 mg/kg i.v.; ref review report of febuxostat (Feburic Tablet); cited from earlier work
[8] = Pharmacokinetics of methotrexate after intravenous administration with and without febuxostat in rats; type: in vivo, rat; settings: for Vd / half-life / k el / AUC(0-t) / clearance: male, Wistar, rat, plasma, iv, 2 mg/kg, methotrexate 2 mg/kg i.v., mean ± S.D.; for Vd / half-life / k el: n = 4; for AUC(0-t): n = 4, read-out: AUC0–90 min (converted); for clearance: n = 4, read-out: CLtot
Description: Nine‐week‐old male Wistar rats (SLC Japan Co., Shizuoka, Japan) were used for the pharmacokinetics study. All animal procedures were approved by the Animal Experiments Committee of The University of Osaka (No. 03‐018‐000) and conducted in accordance with the Japanese Law for the Protection and Management of Animals, the Standards Relating to the Care and Management of Laboratory Animals and Relief of Pain, and other relevant regulations and guidelines for animal experimentation. The rats were anesthetized with an intraperitoneal injection of a mixture of medetomidine, midazolam, and butorphanol at doses of 0.38, 2.0, and 2.5 mg/kg, respectively. Polyethylene catheters were implanted into the femoral vein and femoral artery to administer the drug and facilitate frequent blood collection. […] The area under the plasma concentration–time curve from 0 to 90 min (AUC0–90 min) was calculated using the trapezoidal rule. Moreover, the systemic clearance (CLtot), elimination rate constant from the central compartment (Kel), distribution volume of the central compartment (Vd), and half‐life (T1/2) were calculated according to the procedures for 2‐compartmental analysis.
as §1

[9] = set-up: method as in Bleyer [1978]; settings: within 30 h of administration; ref Bleyer [1978]; cited from earlier work
hOAT3 [10] = target: T1, hOAT3; settings: 10 μM methotrexate, 2, 5, 10 and 15 min, 37°C, all time points
Procedure: These cells were cultured in complete medium consisting of Medium 199 (Life Technologies, Carlsbad, CA) supplemented with 10% fetal bovine serum containing G418 (0.5 mg/mL; FUJIFILM WAKO Pure Chemical) and were used between passage numbers 95 and 115. These cells were maintained at 37°C under 5% CO2 in a humidified atmosphere.
The cells (12 × 10^5 cells/dish) were seeded in 3.5 cm dishes with culture medium in the absence of G418. After 48 h of culture, cell monolayers were utilized for uptake study. […] The composition of the incubation medium was as follows: 145 mM NaCl, 3 mM KCl, 1 mM CaCl2, 0.5 mM MgCl2, 5 mM D‐glucose, and 5 mM HEPES (pH 7.4). […] To assess intracellular 6‐CF accumulation, the cells were solubilized in 1 N NaOH and fluorescence was measured using a fluorescence spectrophotometer (SH‐9000lab, CORONA, Ibaraki, Japan) at 495 nm excitation/517 nm emission. The protein content of the solubilized cells was measured using a BCA protein assay kit (Thermo Fisher Scientific, Waltham, MA).
The UPLC‐MS/MS system was applied with the ACQUITY HPLC H‐class/ACQUITY TQD system with electrospray ionization (Waters, Milford, MA). 10 μL of 100 ng/mL pemetrexed, utilized as an internal standard (IS), was added to the samples (100 μL). The samples (10 μL) were then subjected to UPLC‐MS/MS. […]

rOAT3 = test system: rOAT3; set-up: method as in Nozaki et al. [2004]; settings: rat kidney slices; ref Nozaki et al. [2004]; cited from earlier work
[11] = substrate: CN(Cc1cnc2nc(N)nc(N)c2n1)c1ccc(C(=O)N[C@@H](CCC(=O)O)C(=O)O)cc1; test: cells, lysate or membranes named; settings: other: 2 min, 37°C, pH 7.4, uptake in HEK-pBK subtracted from HEK-hOAT3, mean ± S.E.
[12] = HEK-hOAT3 cells, estron-3-sulfate as substrate, ref Tang et al. [2022]

Molecule: O=C(O)c1ccc(C(=O)O)c(-c2c3ccc(=O)cc-3oc3cc(O)ccc23)c1 [6‐CF, 6‐carboxyfluorescein]
Uptake in HEK-hOAT3 cells relative to HEK-pBK cells (hOAT3 [1]; pH 7.4): approximately 17.4 fold

Molecule: Cc1nc(-c2ccc(OCC(C)C)c(C#N)c2)sc1C(=O)O[C@@H]1O[C@H](C(=O)O)[C@@H](O)[C@H](O)[C@H]1O [febuxostat acyl‐β‐D‐glucuronide]
inhibitory type against hOAT3 (hOAT3 [2]; [12]): competitive
Ki (hOAT3 [2]; [12]): 6110 nM

B1: hOAT3 (Homo sapiens) (protein)
chain: MTFSEILDRVGSMGHFQFLHVAILGLPILNMANHNLLQIFTAATPVHHCRPPHNASTGPWVLPMGPNGKPERCLRFVHPPNASLPNDTQRAMEPCLDGWVYNSTKDSIVTEWDLVCNSNKLKEMAQSIFMAGILIGGLVLGDLSDRFGRRPILTCSYLLLAASGSGAAFSPTFPIYMVFRFLCGFGISGITLSTVILNVEWVPTRMRAIMSTALGYCYTFGQFILPGLAYAIPQWRWLQLTVSIPFFVFFLSSWWTPESIRWLVLSGKSSKALKILRRVAVFNGKKEEGERLSLEELKLNLQKEISLAKAKYTASDLFRIPMLRRMTFCLSLAWFATGFAYYSLAMGVEEFGVNLYILQIIFGGVDVPAKFITILSLSYLGRHTTQAAALLLAGGAILALTFVPLDLQTVRTVLAVFGKGCLSSSFSCLFLYTSELYPTVIRQTGMGVSNLWTRVGSMVSPLVKITGEVQPFIPNIIYGITALLGGSAALFLPETLNQPLPETIEDLENWSLRAKKPKQEPEVEKASQRIPLQPHGPGLGSS
Km [11]: 46.4 ± 9.2 µM
Vmax [11]: 287 ± 26 pmol/mg protein/min

The next lines start with results.

unbound Cmax (clinical concentration) [4]: 0.12 to 0.30 µM
IC50 (hOAT3 [6]): 650 ± 130 nM
Ki (hOAT3 [6]): 630 ± 10 nM
inhibitory type against hOAT3-mediated transport of methotrexate (hOAT3 [6]; Dixon plot, HEK-hOAT3 cells): noncompetitive
ratio of unbound Cmax to Ki value (hOAT3 [6]; human unbound Cmax 0.12–0.30 μM, Ki against hOAT3 0.63 μM): 0.19–0.48
Molecule: Cc1nc(-c2ccc(OCC(C)C)c(C#N)c2)sc1C(=O)O [febuxostat]
Cmax [3]: 5.3 to 13.5 µM
protein binding [5]: 98.4%
Ki (hOAT3 [2]; ref Tang et al. ([2022])): 550 ± 150 nM
plasma concentration of febuxostat [7]: approximately 24.1 μM

Vd ([8]; febuxostat (+) 1 mg/kg i.v.): 0.433 ± 0.088 L/kg
half-life ([8]; febuxostat (+) 1 mg/kg i.v.): 14 ± 4.6 min
k el ([8]; febuxostat (+) 1 mg/kg i.v.): 0.000833 s⁻¹
AUC(0-t) ([8]; febuxostat (+) 1 mg/kg i.v.): 4350 ng·h/mL
clearance ([8]; febuxostat (+) 1 mg/kg i.v.): 8.02 ± 2.03 mL/min/kg
Vd ([8]; febuxostat (−)): 0.378 ± 0.061 L/kg
half-life ([8]; febuxostat (−)): 6.4 ± 1.4 min
k el ([8]; febuxostat (−)): 0.00183 s⁻¹
AUC(0-t) ([8]; febuxostat (−)): 2170 ng·h/mL
clearance ([8]; febuxostat (−)): 15.9 ± 3.56 mL/min/kg
Plasma concentration of methotrexate with concomitant febuxostat ([8]; methotrexate 2 mg/kg i.v. with febuxostat 1 mg/kg i.v. vs without, at 15, 30, 60 and 90 min): significantly increased
Uptake in HEK-hOAT3 cells compared with HEK-pBK cells (hOAT3 [10]): significantly higher
Molecule: CN(Cc1cnc2nc(N)nc(N)c2n1)c1ccc(C(=O)N[C@@H](CCC(=O)O)C(=O)O)cc1 [methotrexate]
excreted in urine as unchanged drug [9]: approximately 95%
share of renal basolateral uptake for which rOAT3 is responsible (rOAT3): approximately 50%

Effect on uptake of 6-CF in HEK-hOAT3 cells (hOAT3 [1]; 100 μM probenecid): potently inhibited
Molecule: CCCN(CCC)S(=O)(=O)c1ccc(C(=O)O)cc1 [probenecid]
